Entries after “also recorded” stand apart in the source; their conditions may differ.
Key:
[1] = tested on: nicotinic acid-induced vasodilation; assay: Nicotinic acid-induced vasodilation in mice (ear perfusion, laser Doppler); type: in vivo, mouse; conditions: male C57BL/6 mice, DP antagonist ~40 mpk i.p., nicotinic acid ~100 mpk s.c., FIGS. 2 and 3
Protocol: Blood flow in the mouse ear (a measure of vasodilation, a prominent component of flushing in humans) is measured after administration of nicotinic acid to mice that had been pretreated with vehicle (as a control) or a DP antagonist. Specifically, male C57BL/6 mice (˜25 g) were used in the study. Five mice were evaluated in each test group. Nembutal was diluted with water to a final concentration of 5 mg/ml and injected 0.3 ml/mouse intraperitoneally. DP antagonists were dissolved in 5% hydroxypropyl β-cyclodextrin at a final concentration of 5 mg/mi and the compounds were administered intraperitoneally at a volume of 0.2 mi/mouse (˜40 mpk). Nicotinic acid was dissolved in 5% hydroxypropyl β-cyclodextrin at a final concentration of 12.5 mg/mi. […]
Perfusion of mouse ear skin was monitored with a laser Doppler perfusion imager (PeriScan PIM II, Perimed, Sweden) every 30 seconds for 15 minutes starting 5 minutes prior to nicotinic acid administration. Percent changes in mean perfusion over the 10 minute period after vehicle or nicotinic acid administration were calculated and a graph of percent change in mean perfusion vs. time was generated for each animal. The area under the curve (AUC) of mean perfusion (% Δ×min) was then calculated from each graph and the results are expressed in mean AUC±SEM for each group.

[2] = tested on: prostaglandin D2-induced vasodilation; assay: Prostaglandin D2-induced vasodilation in mice; type: in vivo, mouse; conditions: FIG. 1
From the text: Compound D suppressed PGD-2 induced vasodilation in the mouse (FIG. 1). The DP antagonists tested suppressed nicotinic acid-induced vasodilation in the mouse; data for selected compounds is provided in FIGS. 2 and 3.

## CC(O)c1cc(S(C)(=O)=O)cc2c3c(n(Cc4ccc(Cl)cc4)c12)[C@@H](CC(=O)O)CC3 (some centres unmarked) [Compound D]
[1]
  inhibition of nicotinic acid-induced vasodilation: inhibits
[2]
  inhibition of prostaglandin D2-induced vasodilation: inhibits; also recorded: suppressed
